The values that follow are results of earlier work, collected in patent publication US4361545A (Rowell Laboratories, Inc., priority 1981, dated 1982).

As to `Cn1c(=O)c2[nH]cnc2n(C)c1=O` [theophylline], the solubility entry is on record as “low to moderate solubility”.
